In the supplement of paper PMC5908809:

Assays:
[1] = system: NKL (IL-2 2.5 ng/mL); test: percent inhibition of viability; higher = more inhibition; details: 72 h
[2] = system: KHYG-1 (IL-2 2.5 ng/mL); test: as above; details: 72 h
[3] = system: normal primary NK cells, pool 1 (3 donors), resting (IL-2 0 ng/mL); test: as above; details: 72 h
[4] = system: normal primary NK cells, pool 2 (3 donors) (IL-2 2.5 ng/mL); test: as above; details: 72 h
[5] = system: NK-YS (IL-2 2.5 ng/mL); test: as above; details: 72 h
[6] = system: normal primary NK cells, pool 3 (3 donors) (IL-2 2.5 ng/mL); test: as above; details: 72 h
[7] = system: KAI3 (IL-2 2.5 ng/mL); test: as above; details: 72 h
[8] = system: DERL-7 (IL-2 2.5 ng/mL); test: as above; details: 72 h
[9] = system: normal primary NK cells, pool 1 (3 donors) (IL-2 2.5 ng/mL); test: as above; details: 72 h
[10] = system: YT (IL-2 2.5 ng/mL); test: as above; details: 72 h
[11] = system: SNK-6 (IL-2 2.5 ng/mL); test: as above; details: 72 h
[12] = system: IMC-1 (IL-2 20 ng/mL); test: as above; details: 72 h
[13] = system: NK-92 (IL-2 2.5 ng/mL); test: as above; details: 72 h
[14] = system: NKL (IL-2 2.5 ng/mL); test: drug sensitivity score (DSS) (DSS units); higher = more sensitive; extreme values may be limits of the assay; details: 72 h
[15] = system: KHYG-1 (IL-2 2.5 ng/mL); test: as above; details: 72 h
[16] = system: normal primary NK cells, pool 1 (3 donors), resting (IL-2 0 ng/mL); test: as above; details: 72 h
[17] = system: normal primary NK cells, pool 2 (3 donors) (IL-2 2.5 ng/mL); test: as above; details: 72 h
[18] = system: NK-YS (IL-2 2.5 ng/mL); test: as above; details: 72 h
[19] = system: normal primary NK cells, pool 3 (3 donors) (IL-2 2.5 ng/mL); test: as above; details: 72 h
[20] = system: KAI3 (IL-2 2.5 ng/mL); test: as above; details: 72 h
[21] = system: DERL-7 (IL-2 2.5 ng/mL); test: as above; details: 72 h
[22] = system: normal primary NK cells, pool 1 (3 donors) (IL-2 2.5 ng/mL); test: as above; details: 72 h
[23] = system: YT (IL-2 2.5 ng/mL); test: as above; details: 72 h
[24] = system: SNK-6 (IL-2 2.5 ng/mL); test: as above; details: 72 h
[25] = system: IMC-1 (IL-2 20 ng/mL); test: as above; details: 72 h
[26] = system: NK-92 (IL-2 2.5 ng/mL); test: as above; details: 72 h
[27] = system: normal NK cells expanded with K562-aAPC; test: as above; details: 72 h; IL-2 2.5 ng/mL
Experimental: (§1)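 Drug sensitivity and resistance testing on K562-aAPC-expanded normal NK cells: 5 concentrations (10-fold steps over a 10,000-fold range), 72 h at 37 °C, viability by CellTiter-Glo normalised to DMSO and benzethonium chloride controls; DSS from the fitted curve.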

[28] = system: normal NK cells expanded with K562-aAPC; test: percent inhibition of viability; higher = more inhibition; details: 72 h, IL-2 2.5 ng/mL
Experimental: as §1

C[C@@H](Oc1cc(-c2cnn(C3CCNCC3)c2)cnc1N)c1c(Cl)ccc(F)c1Cl [Crizotinib] (max concentration tested 1000 nM)
percent inhibition of viability [%]
Details	0.1 nM	1 nM	10 nM	100 nM	1000 nM
[1]	-3.16	-3.23	-5.42	9.67	43.3
[2]	-1.4	-6.18	0.71	2.28	20.6
[3]	-6.8	-15.6	-1.32	0.53	39.1
[4]	-7.13	-11.6	-1.57	-2.22	20.3
[5]	-6.03	-14.8	-8.66	-7.59	15.5
[6]	-11.7	-8.52	6.99	-0.76	18
[7]	-4.43	-13.2	-10.6	-0.67	30.1
[8]	-0.63	5.41	-1.8	-2.42	25.2
[9]	-4.24	-0.87	8.61	7.22	32.6
[10]	-0.11	-5.24	-1.87	2.08	25.1
[11]	-16.1	-28	-15	-17.9	-4.35
[12]	-4.84	-8.42	-0.95	5.13	7.41
[13]	-12.7	0.5	-4.15	16.4	34.7
[28]	-7.86	-6.31	-9.93	-2.46	19.7

Details	drug sensitivity score
[14]	3.75
[15]	0.95
[16]	1.99
[17]	0.49
[18]	0.12
[19]	0.4
[20]	1.25
[21]	0.81
[22]	2.41
[23]	1.25
[24]	0
[25]	0
[26]	3.72
[27]	0.44

CNCc1ccc(-c2[nH]c3cc(F)cc4c3c2CCNC4=O)cc1 [Rucaparib] (max concentration tested 10000 nM)
percent inhibition of viability [%]
Details	1 nM	10 nM	100 nM	1000 nM	10000 nM
[1]	-15.5	5.49	23.9	53.6	87.9
[2]	-3.58	-2.03	-1.44	4.57	20
[3]	3.79	19.2	4.4	7.5	-5.08
[4]	-2.83	5.08	-1.77	-1.32	4.05
[5]	-2.32	-3.72	1.59	11.2	75.7
[6]	-0.27	12.1	3.56	-0.98	7.3
[7]	-1.49	2.99	3.22	18.5	43.5
[8]	-9.87	10	4.56	3.4	22.7
[9]	4.59	15.4	12.4	3.34	18.9
[10]	-4.68	-5.01	-3.45	2.32	17.4
[11]	7.29	-11.5	-2.3	1	31
[12]	-6.39	-3.67	-0.13	1.12	30.4
[13]	-18.8	8.56	-9.2	6.16	47.7
[28]	-4.01	-1.44	-1.55	6.35	21.8

Details	drug sensitivity score
[14]	13.3
[15]	1.18
[16]	0
[17]	0
[18]	6.07
[19]	0
[20]	4.23
[21]	1.29
[22]	0
[23]	0.68
[24]	1.5
[25]	1.47
[26]	3.52
[27]	1.54

CC(=O)Nc1ccc(C(=O)Nc2ccccc2N)cc1 [Tacedinaline] (max concentration tested 1000 nM)
percent inhibition of viability [%]
Details	0.1 nM	1 nM	10 nM	100 nM	1000 nM
[1]	-13.2	-9.56	-8.35	10.4	13.4
[2]	-0.97	-4.06	-3.24	4.27	16.5
[3]	-5.67	17.3	11.8	17	7.91
[4]	-2.79	13	9.29	6.96	7.45
[5]	-0.71	-3.09	-0.76	2.62	20.6
[6]	-4.4	14.9	12.8	-1.16	-0.28
[7]	-0.2	1.1	-0.46	-0.59	35.3
[8]	-0.72	2.51	4.2	-1.26	-25
[9]	-1.61	16.8	8.47	8.43	13
[10]	-4.71	-3.94	-0.65	4.76	25.3
[11]	1.48	-10.9	-5.83	1.17	46.3
[12]	-3.66	-4.64	-1.29	1.46	17.6
[13]	-18.8	2.67	-7.86	1.73	27.5
[28]	-1.06	-4	-3.33	3.27	14

Details	drug sensitivity score
[14]	0.67
[15]	0.78
[16]	5.06
[17]	0
[18]	1
[19]	0
[20]	1.62
[21]	0
[22]	0.6
[23]	1.69
[24]	2.54
[25]	0.58
[26]	1.36
[27]	0.42
